Measurements published in patent US9353081B2, “Bicyclic dihydroquinoline-2-one derivatives” (Hoffmann-La Roche Inc., priority 2011, dated 2016).
Counter-ions that a name gives are not always drawn. Values belong to the compound of their own block, whether it stands above or below them.

Columns and labels:
[1] = biological target: human CYP11B2 (Homo sapiens (Human), UniProt P19099); assay: G-402 cellular enzyme assay, human CYP11B2 (aldosterone release, HTRF); assay type: cell-based; conditions: G-402 cells expressing human CYP11B2; 1 μM Deoxycorticosterone
Excerpt: (§1) Specifically we developed stable G-402 cells expressing ectopically human CYP11B1, human CYP11B2, human CYP11A1, cynomolgus CYP11B1 or cynomolgus CYP11B2 enzyme activity.
(§2) The expression plasmids contains the ORF for either human/cyno CYP11B1 or CYP11B2 under the control of a suitable promoter (CMV-promoter) and a suitable resistance marker (neomycin). Using standard techniques the expression plasmid is transfected into G-402 cells and these cells are then selected for expressing the given resistance markers. Individual cell-clones are then selected and assessed for displaying the desired enzymatic activity using 11-Deoxycorticosterone (Cyp11B2) or 11-Deoxycortisol (Cyp11B1) as a substrate.
(§3) For assaying enzymatic activity, cells were plated onto 96 well plates and incubated for 16 h. An aliquot of the supernatant is then transferred and analyzed for the concentration of the expected product (Aldosterone for CYP11B2; Cortisol for CYP11B1). The concentrations of these steroids can be determined using HTRF assays from CisBio analyzing either Aldosterone or Cortisol.
(§4) Inhibition of the release of produced steroids can be used as a measure of the respective enzyme inhibition by test compounds added during the cellular enzyme assay. The dose dependent inhibition of enzymatic activity by a compound is calculated by means of plotting added inhibitor concentrations x-axes) vs. measured steroid/product level (y-axes). The inhibition is then calculated by fitting the following 4-parameter sigmoidal function (Morgan-Mercer-Flodin (MMF) model) to the raw data points using the least squares method:
(§5) [formula] wherein, A is the maximum y value, B is the EC50 factor determined using XLFit, C is the minimum y value and D is the slope value.
(§6) EC50 values for compounds claimed herein were tested with the G402-based assay system described. Cyp11B2 enzyme activity was tested in presence of 1 μM Deoxycorticosterone and variable amounts of inhibitors; Cyp11B1 enzyme activity was tested in presence of 1 μM Deoxycortisol and variable amounts of inhibitors.

[2] = biological target: human CYP11B1 (Homo sapiens (Human), UniProt P15538); assay: G-402 cellular enzyme assay, human CYP11B1 (cortisol release, HTRF); assay type: cell-based; conditions: G-402 cells expressing human CYP11B1; 1 μM Deoxycortisol
Excerpt: as §1, §2, §3, §4, §5, §6

Sequence of human CYP11B1 (P15538 25-503): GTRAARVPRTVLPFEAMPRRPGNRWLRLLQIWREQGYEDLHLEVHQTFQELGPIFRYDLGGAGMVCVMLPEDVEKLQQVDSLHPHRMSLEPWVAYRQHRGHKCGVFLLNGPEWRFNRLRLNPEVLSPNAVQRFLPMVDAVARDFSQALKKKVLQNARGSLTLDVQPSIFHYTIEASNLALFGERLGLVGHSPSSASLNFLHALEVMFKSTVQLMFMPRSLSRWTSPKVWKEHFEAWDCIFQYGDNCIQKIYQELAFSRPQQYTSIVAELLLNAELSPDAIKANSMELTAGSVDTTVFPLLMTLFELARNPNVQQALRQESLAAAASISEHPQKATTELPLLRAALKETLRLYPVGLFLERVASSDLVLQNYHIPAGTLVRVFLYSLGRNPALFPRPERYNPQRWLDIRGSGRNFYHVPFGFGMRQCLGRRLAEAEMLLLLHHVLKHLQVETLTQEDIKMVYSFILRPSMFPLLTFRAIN
Sequence of human CYP11B2 (P19099 25-503): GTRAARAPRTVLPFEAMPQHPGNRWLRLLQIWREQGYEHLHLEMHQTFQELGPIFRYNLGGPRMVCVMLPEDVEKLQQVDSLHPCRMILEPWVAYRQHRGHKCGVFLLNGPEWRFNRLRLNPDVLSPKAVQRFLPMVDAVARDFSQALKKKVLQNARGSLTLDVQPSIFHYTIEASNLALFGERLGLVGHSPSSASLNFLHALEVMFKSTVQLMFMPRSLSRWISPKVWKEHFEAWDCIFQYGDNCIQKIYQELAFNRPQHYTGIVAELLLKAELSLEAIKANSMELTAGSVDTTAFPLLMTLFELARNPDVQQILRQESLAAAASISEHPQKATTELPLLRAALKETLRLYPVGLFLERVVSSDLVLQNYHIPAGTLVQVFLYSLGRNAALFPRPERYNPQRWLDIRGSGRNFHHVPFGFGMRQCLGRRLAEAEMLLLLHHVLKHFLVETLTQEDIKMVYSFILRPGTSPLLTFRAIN

Structure (SMILES): CN1C(=O)CCc2cc(-c3cncc4c3CCCC4O)ccc21 (single isomer, unassigned) [Example 69, (R or S)-6-(8-Hydroxy-5,6,7,8-tetrahydro-isoquinolin-4-yl)-1-methyl-3,4-dihydroquinolin-2(1H)-one]
EC50 [1]: 2 nM
EC50 [2]: 54.1 nM

Structure (SMILES): CCC(=O)N[C@H]1c2cncc(-c3cc4c(cc3F)N(C)C(=O)CC4)c2CC[C@@H]1F (single isomer, unassigned) [Example 54, (+)-N-[(7S,8S or 7R,8R)-7-Fluoro-4-(7-fluoro-1-methyl-2-oxo-1,2,3,4-tetrahydro-quinolin-6-yl)-5,6,7,8-tetrahydro-isoquinolin-8-yl]-propionamide]
EC50 [1]: 38.8 nM
EC50 [2]: 2390 nM

Structure (SMILES): CCC(=O)NC1CCc2c(-c3cc4c(cc3F)N(C)C(=O)CC4)cncc21 (single isomer, unassigned; (+)) [Example 24, (+)-(R or S)—N-(4-(7-Fluoro-1-methyl-2-oxo-1,2,3,4-tetrahydroquinolin-6-yl)-6,7-dihydro-5H-cyclopenta[c]pyridin-7-yl)propionamide]
EC50 [1]: 3.8 nM
EC50 [2]: 466 nM

Structure (SMILES): CCC(=O)NC1CCCc2c(-c3ccc4c(c3)CCC(=O)N4C)cncc21 (single isomer, unassigned; (-)) [Example 2, (−)-(R or S)—N-(4-(1-Methyl-2-oxo-1,2,3,4-tetrahydroquinolin-6-yl)-5,6,7,8-tetrahydroisoquinolin-8-yl)propionamide]
EC50 [1]: 1020 nM
EC50 [2]: 12100 nM

Structure (SMILES): CN1C(=O)CCc2cc(-c3cncc4c3CCCN4CCN)ccc21 [Example 12, 6-[1-(2-Amino-ethyl)-1,2,3,4-tetrahydro-[1,7]naphthyridin-5-yl]-1-methyl-3,4-dihydro-1H-quinolin-2-one hydrochloride]
EC50 [1]: 4 nM
EC50 [2]: 1880 nM

Structure (SMILES): CC(=O)N[C@@H]1CCCc2c(-c3ccc4c(c3)CCC(=O)N4C)cncc21 [Example 63, N—[(R)-4-(1-Methyl-2-oxo-1,2,3,4-tetrahydro-quinolin-6-yl)-5,6,7,8-tetrahydro-isoquinolin-8-yl]-acetamide]
EC50 [1]: 4.8 nM
EC50 [2]: 1190 nM

Structure (SMILES): C[C@H](O)C(=O)NC1CCCc2c(-c3ccc4c(c3)CCC(=O)N4C)cncc21 (single isomer, unassigned; (-)) [Example 20, (−)-(2S)-2-hydroxy-N-((4S or 4R)-4-(1-methyl-2-oxo-1,2,3,4-tetrahydroquinolin-6-yl)-5,6,7,8-tetrahydroisoquinolin-8-yl)propanamide]
EC50 [1]: 823 nM
EC50 [2]: 25500 nM

Structure (SMILES): CCC(=O)NC1CCCc2c(-c3ccc4c(c3)CCC(=O)N4C)cncc21 (single isomer, unassigned; (+)) [Example 3, (+)-(S or R)—N-(4-(1-Methyl-2-oxo-1,2,3,4-tetrahydroquinolin-6-yl)-5,6,7,8-tetrahydroisoquinolin-8-yl)propionamide]
EC50 [1]: 14 nM
EC50 [2]: 980 nM

Structure (SMILES): CCC(=O)NC1CCCc2c(-c3cc4c(cc3F)N(C)C(=O)CC4)cncc21 (single isomer, unassigned; (-)) [Example 29, (−)-(S or R)—N-[4-(7-Fluoro-1-methyl-2-oxo-1,2,3,4-tetrahydro-quinolin-6-yl)-5,6,7,8-tetrahydro-isoquinolin-8-yl]-propionamide]
EC50 [1]: 1790 nM
EC50 [2]: 42600 nM

Structure (SMILES): CN1C(=O)CCc2cc(-c3cncc4c3CCC[C@H]4NC(=O)C3CC3)ccc21 [Example 64, Cyclopropanecarboxylic acid [(R)-4-(1-methyl-2-oxo-1,2,3,4-tetrahydro-quinolin-6-yl)-5,6,7,8-tetrahydro-isoquinolin-8-yl]-amide]
EC50 [1]: 46.2 nM
EC50 [2]: 2360 nM

Structure (SMILES): CN1C(=O)CCc2cc(-c3cncc4c3CCC[C@H]4NS(C)(=O)=O)ccc21 [Example 65, N—[(R)-4-(1-Methyl-2-oxo-1,2,3,4-tetrahydro-quinolin-6-yl)-5,6,7,8-tetrahydro-isoquinolin-8-yl]-methanesulfonamide]
EC50 [1]: 17 nM
EC50 [2]: 1930 nM

Structure (SMILES): CCC(=O)N[C@@H]1c2cncc(-c3cc4c(cc3F)N(C)C(=O)CC4)c2CC[C@@H]1C (single isomer, unassigned) [Example 43, (−)-N-[(7S,8S or 7R,8R)-4-(7-Fluoro-1-methyl-2-oxo-1,2,3,4-tetrahydro-quinolin-6-yl)-7-methyl-5,6,7,8-tetrahydro-isoquinolin-8-yl]-propionamide]
EC50 [1]: 452 nM
EC50 [2]: 32000 nM

Structure (SMILES): CCC(=O)N[C@H]1c2cncc(-c3cc4c(cc3F)N(C)C(=O)CC4)c2CC[C@H]1F (single isomer, unassigned) [Example 55, (+)-N-[(7R,8S or 7S,8R)-7-Fluoro-4-(7-fluoro-1-methyl-2-oxo-1,2,3,4-tetrahydro-quinolin-6-yl)-5,6,7,8-tetrahydro-isoquinolin-8-yl]-propionamide]
EC50 [1]: 158 nM
EC50 [2]: 2760 nM

Structure (SMILES): CCC(=O)N[C@@H]1c2cncc(-c3cc4c(cc3F)N(C)C(=O)CC4)c2CC[C@@H]1F (single isomer, unassigned) [Example 57, (−)-N-[(7S,8R or 7R,8S)-7-Fluoro-4-(7-fluoro-1-methyl-2-oxo-1,2,3,4-tetrahydro-quinolin-6-yl)-5,6,7,8-tetrahydro-isoquinolin-8-yl]-propionamide]
EC50 [1]: 884 nM
EC50 [2]: 20300 nM

Structure (SMILES): CCC(=O)NC1CCCc2c(-c3cc(Cl)c4c(c3)CCC(=O)N4C)cncc21 (single isomer, unassigned; (+)) [Example 41, (+)-N—[(R or S)-4-(8-Chloro-1-methyl-2-oxo-1,2,3,4-tetrahydro-quinolin-6-yl)-5,6,7,8-tetrahydro-isoquinolin-8-yl]-propionamide]
EC50 [1]: 16.6 nM
EC50 [2]: 3530 nM

Structure (SMILES): C[C@H](O)C(=O)NC1CCCc2c(-c3ccc4c(c3)CCC(=O)N4C)cncc21 (stereo partly drawn) [Example 17, (2S)-2-Hydroxy-N-((4R,S)-4-(1-methyl-2-oxo-1,2,3,4-tetrahydroquinolin-6-yl)-5,6,7,8-tetrahydroisoquinolin-8-yl)propanamide]
EC50 [1]: 31.6 nM
EC50 [2]: 885 nM

Structure (SMILES): CCC(=O)NC1CCc2c(-c3cc(Cl)c4c(c3)CCC(=O)N4C)cncc21 (racemic) [Example 58, (rac)-N-(4-(8-Chloro-1-methyl-2-oxo-1,2,3,4-tetrahydroquinolin-6-yl)-6,7-dihydro-5H-cyclopenta[c]pyridin-7-yl)propionamide]
EC50 [1]: 44.6 nM
EC50 [2]: 7600 nM

Structure (SMILES): CN1C(=O)CCc2cc(-c3cncc4c3CCCC4=O)ccc21 [Example 70, 1-Methyl-6-(8-oxo-5,6,7,8-tetrahydro-isoquinolin-4-yl)-3,4-dihydro-1H-quinolin-2-one]
EC50 [1]: 15.7 nM
EC50 [2]: 7170 nM

EC50 [1]: 467 nM
EC50 [2]: 19300 nM
Structure (SMILES): CCC(=O)N[C@@H]1c2cncc(-c3ccc4c(c3)CCC(=O)N4C)c2CC[C@@H]1C (single isomer, unassigned) [Example 46, (−)-N-[(7S,8S or 7R,8R)-7-Methyl-4-(1-methyl-2-oxo-1,2,3,4-tetrahydro-quinolin-6-yl)-5,6,7,8-tetrahydro-isoquinolin-8-yl]-propionamide]

Structure (SMILES): CCC(=O)NC1CCCc2c(-c3cc4c(cc3F)N(C)C(=O)CC4)cncc21 (single isomer, unassigned; (+)) [Example 30, (+)-(R or S)—N-[4-(7-fluoro-1-methyl-2-oxo-1,2,3,4-tetrahydro-quinolin-6-yl)-5,6,7,8-tetrahydro-isoquinolin-8-yl]-propionamide]
EC50 [1]: 30 nM
EC50 [2]: 3680 nM

Structure (SMILES): CCC(=O)N[C@H]1c2cncc(-c3cc4c(cc3F)N(C)C(=O)CC4)c2CC[C@H]1C (single isomer, unassigned) [Example 48, (+)-N-[(7R,8R or 7S,8S)-4-(7-Fluoro-1-methyl-2-oxo-1,2,3,4-tetrahydro-quinolin-6-yl)-7-methyl-5,6,7,8-tetrahydro-isoquinolin-8-yl]-propionamide]
EC50 [1]: 26.1 nM
EC50 [2]: 2880 nM

Structure (SMILES): CN1C(=O)CCc2cc(-c3cncc4c3CCCC4O)ccc21 (racemic) [Example 67, (rac)-6-(8-Hydroxy-5,6,7,8-tetrahydro-isoquinolin-4-yl)-1-methyl-3,4-dihydroquinolin-2(1H)-one]
EC50 [1]: 4.7 nM
EC50 [2]: 206 nM

Structure (SMILES): CCC(=O)N[C@@H]1c2cncc(-c3cc4c(cc3F)N(C)C(=O)CC4)c2CC[C@H]1F (single isomer, unassigned) [Example 56, (−)-N-[(7R,8R or 7S,8S)-7-Fluoro-4-(7-fluoro-1-methyl-2-oxo-1,2,3,4-tetrahydro-quinolin-6-yl)-5,6,7,8-tetrahydro-isoquinolin-8-yl]-propionamide]
EC50 [1]: 2780 nM
EC50 [2]: 14900 nM

Structure (SMILES): CCS(=O)(=O)NC1CCCc2c(-c3cc4c(cc3F)N(C)C(=O)CC4)cncc21 (single isomer, unassigned; (+)) [Example 32, (+)-(R or S)-Ethanesulfonic acid [4-(7-fluoro-1-methyl-2-oxo-1,2,3,4-tetrahydro-quinolin-6-yl)-5,6,7,8-tetrahydro-isoquinolin-8-yl]-amide]
EC50 [1]: 78.2 nM
EC50 [2]: 4240 nM
